Calls of active or inactive are those of the source. Rule as the data show it, for most assays here: actives have a measured EC50 and inactives only a lower limit.
Columns and labels:
[1] = target: Luciferin 4-monooxygenase (Photinus pyralis, UniProt P08659); assay: firefly luciferase enzyme inhibitors, dose response, biochemical, luminescence (AID 1891)
[2] = Luminescence Cell-Based Dose Confirmation HTS to Identify Inhibitors of Platelet Dense Granule Release. [Related pubchem assays: 1663 (Primary HTS), 1678 (Summary of Project)]; format: functional
[3] = P. falciparum Dd2 growth inhibitors, dose response, SYBR Green, cherry-picked samples (AID 1159567); format: functional, cell-based
[4] = cells; format: functional
[5] = inhibitors of SNCA 5'UTR-driven reporter translation, confirmation, H4 neuroglioma cells, luminescence (AID 1988); format: functional, cell-based
[6] = Luminescence Cell-Based Dose Response HTS to Identify Inhibitors of 5'UTR Stem-Loop Driven Prion Protein mRNA Translation in H4 Neuroglioblastoma Cells. [Related pubchem assays: 1827 (Project Summary), 1813 (Primary HTS)]; format: functional
[7] = inhibitors of firefly luciferase expression or activity, dose response, H4 neuroglioma cells, luminescence (AID 1990); format: functional, cell-based
[8] = Luminescence Cell-Based Dose Retest to Confirm Inhibitors of Cancer Stem Cells. [Related pubchem assays (depositor defined):AID2717, AID2721]; format: functional; settings: Homo sapiens
[9] = microbe, parasite or virus in culture; format: functional; settings: Mycobacterium tuberculosis
[10] = test system: Streptococcus sp. 'group A'; assay: growth inhibition of control SK(-) GAS strain, dose response, counter-screen for streptokinase expression inhibitor project, luminescence, kanamycin, BacTiterGlo, confirmation (AID 1900); format: functional, organism-based
[11] = test system: Streptococcus; assay: Group A Streptococcus viability loss, dose response, counter-screen for streptokinase expression inhibitor project, luminescence, BacTiterGlo (AID 1915); format: functional, organism-based;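 also: potency for reduction of bacterial viability or growth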
[12] = target: T1, Protein RecA (Mycobacterium tuberculosis, UniProt P9WHJ3); assay: Fluorescence Cell-Free Homogeneous Dose Retest to Identify Inhibitors of RecA-Intein Splicing Activity. [Related pubchem assays (depositor defined):AID2097, AID2223, AID489010, AID492950]; format: functional
T1 sequence (P9WHJ3 whole entry): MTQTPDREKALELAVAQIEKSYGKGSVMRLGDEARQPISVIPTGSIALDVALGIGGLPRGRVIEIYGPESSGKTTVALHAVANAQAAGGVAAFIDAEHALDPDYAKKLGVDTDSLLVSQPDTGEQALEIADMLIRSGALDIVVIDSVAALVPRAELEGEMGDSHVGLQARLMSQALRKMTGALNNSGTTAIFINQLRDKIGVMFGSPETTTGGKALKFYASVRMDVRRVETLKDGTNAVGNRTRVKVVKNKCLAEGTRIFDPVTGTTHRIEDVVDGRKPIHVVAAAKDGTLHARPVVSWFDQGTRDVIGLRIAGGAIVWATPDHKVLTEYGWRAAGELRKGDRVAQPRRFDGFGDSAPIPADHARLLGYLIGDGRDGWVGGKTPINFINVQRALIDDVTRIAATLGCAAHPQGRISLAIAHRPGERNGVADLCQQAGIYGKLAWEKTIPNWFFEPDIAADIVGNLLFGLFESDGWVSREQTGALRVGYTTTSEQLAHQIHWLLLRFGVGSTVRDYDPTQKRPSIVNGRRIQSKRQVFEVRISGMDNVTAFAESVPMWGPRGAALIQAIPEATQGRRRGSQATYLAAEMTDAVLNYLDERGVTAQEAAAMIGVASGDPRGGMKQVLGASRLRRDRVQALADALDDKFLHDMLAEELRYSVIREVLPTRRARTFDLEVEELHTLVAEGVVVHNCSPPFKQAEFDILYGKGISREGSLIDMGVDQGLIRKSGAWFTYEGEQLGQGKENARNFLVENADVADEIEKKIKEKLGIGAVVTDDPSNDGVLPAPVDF

[13] = target: T2, Replicative DNA helicase DnaB (Mycobacterium tuberculosis, UniProt P9WMR3); assay: DnaB intein splicing inhibitors, dose response, biochemical, cell-free fluorescence (AID 449749); format: functional
T2 sequence (P9WMR3 whole entry): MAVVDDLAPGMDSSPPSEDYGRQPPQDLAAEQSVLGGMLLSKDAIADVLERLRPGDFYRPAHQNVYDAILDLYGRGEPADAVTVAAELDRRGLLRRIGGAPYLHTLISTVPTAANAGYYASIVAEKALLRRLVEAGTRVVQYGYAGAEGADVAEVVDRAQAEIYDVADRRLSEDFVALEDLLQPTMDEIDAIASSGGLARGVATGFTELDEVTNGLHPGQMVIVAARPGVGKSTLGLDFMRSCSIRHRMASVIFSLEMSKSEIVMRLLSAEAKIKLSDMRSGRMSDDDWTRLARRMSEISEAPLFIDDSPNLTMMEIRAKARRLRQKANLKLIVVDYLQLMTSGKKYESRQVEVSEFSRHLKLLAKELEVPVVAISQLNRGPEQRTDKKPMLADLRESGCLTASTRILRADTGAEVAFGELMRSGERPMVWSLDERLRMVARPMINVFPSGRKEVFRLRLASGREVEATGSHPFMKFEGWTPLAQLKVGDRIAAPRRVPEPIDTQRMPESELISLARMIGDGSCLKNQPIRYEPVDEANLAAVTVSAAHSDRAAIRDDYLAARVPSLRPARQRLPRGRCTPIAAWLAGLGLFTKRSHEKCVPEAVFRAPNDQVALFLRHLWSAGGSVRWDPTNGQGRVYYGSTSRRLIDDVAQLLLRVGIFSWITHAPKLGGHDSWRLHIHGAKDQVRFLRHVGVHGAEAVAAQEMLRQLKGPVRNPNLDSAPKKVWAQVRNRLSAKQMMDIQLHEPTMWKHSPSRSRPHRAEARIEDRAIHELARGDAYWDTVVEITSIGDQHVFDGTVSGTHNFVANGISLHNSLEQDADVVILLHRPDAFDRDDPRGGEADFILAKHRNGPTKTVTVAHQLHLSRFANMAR

[14] = target: T3, Streptokinase A (Streptococcus pyogenes serotype M1, UniProt P10520); assay: S. pyogenes streptokinase expression inhibitors, potency, dose response, plasminogen activation absorbance, OD405 (AID 1914); format: functional, Streptococcus pyogenes M1 GAS;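 also: secreted streptokinase activity via plasminogen activation per viability signal from cell pellet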
T3 sequence (P10520 whole entry): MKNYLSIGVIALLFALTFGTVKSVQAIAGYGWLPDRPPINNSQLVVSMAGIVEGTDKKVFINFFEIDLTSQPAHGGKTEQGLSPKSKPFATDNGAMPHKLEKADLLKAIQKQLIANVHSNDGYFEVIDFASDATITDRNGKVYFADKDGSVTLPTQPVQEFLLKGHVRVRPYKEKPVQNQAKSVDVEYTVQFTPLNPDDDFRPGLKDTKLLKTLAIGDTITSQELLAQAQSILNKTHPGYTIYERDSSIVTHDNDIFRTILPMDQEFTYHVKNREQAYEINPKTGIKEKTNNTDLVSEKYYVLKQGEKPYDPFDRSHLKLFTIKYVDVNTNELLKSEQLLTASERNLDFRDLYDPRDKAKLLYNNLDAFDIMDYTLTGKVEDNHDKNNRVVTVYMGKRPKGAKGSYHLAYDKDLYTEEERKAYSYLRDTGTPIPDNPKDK

[15] = test system: H4; assay: Luminescence Cell-Based Dose Response HTS to Identify Activators of 5'UTR Stem-Loop Driven Prion Protein mRNA Translation in H4 Neuroglioblastoma Cells. [Related pubchem assays: 1829 (Project Summary), 1814 (Primary HTS)]; format: functional; settings: Homo sapiens
[16] = Luminescence Cell-Based Dose Confirmation HTS to Identify Activators of 5'UTR Stem-Loop Driven Alpha-Synuclein mRNA Translation in H4 Neuroglioblastoma Cells. [Related pubchem assays: 1829 (Project Summary), 1814 (Primary HTS)]; format: functional
[17] = Luminescence Cell-Based Dose Response HTS to Identify Activators of Luciferase Translation or Activity in H4 […] Cells. [Related pubchem assays: 1829 (Project Summary), 1814 (Primary HTS)]; format: functional
[18] = cytotoxicity toward NIH3T3 fibroblasts, dose response, counter-screen, cell-based, ATP luminescence, mouse fibroblasts (AID 2010); format: functional;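 also: cells exposed to compound for about 90 hours before reading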
[19] = inhibitors of intracellular T. cruzi replication, confirmation, NIH3T3 host cells, beta-gal luminescence (AID 2044); format: functional, cell-based;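 also: intracellular parasites grown in NIH/3T3 mouse fibroblasts as host cells; luminescent beta-galactosidase reporter signal from transgenic T. cruzi replicating inside host cells; inhibitors lower the luminescence signal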
[20] = target: T4, Cytochrome P450 1A2 (Homo sapiens, UniProt P05177);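 also: PubChem cytochrome P450 panel assay, CYP1A2 panel member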
T4 sequence (P05177 whole entry): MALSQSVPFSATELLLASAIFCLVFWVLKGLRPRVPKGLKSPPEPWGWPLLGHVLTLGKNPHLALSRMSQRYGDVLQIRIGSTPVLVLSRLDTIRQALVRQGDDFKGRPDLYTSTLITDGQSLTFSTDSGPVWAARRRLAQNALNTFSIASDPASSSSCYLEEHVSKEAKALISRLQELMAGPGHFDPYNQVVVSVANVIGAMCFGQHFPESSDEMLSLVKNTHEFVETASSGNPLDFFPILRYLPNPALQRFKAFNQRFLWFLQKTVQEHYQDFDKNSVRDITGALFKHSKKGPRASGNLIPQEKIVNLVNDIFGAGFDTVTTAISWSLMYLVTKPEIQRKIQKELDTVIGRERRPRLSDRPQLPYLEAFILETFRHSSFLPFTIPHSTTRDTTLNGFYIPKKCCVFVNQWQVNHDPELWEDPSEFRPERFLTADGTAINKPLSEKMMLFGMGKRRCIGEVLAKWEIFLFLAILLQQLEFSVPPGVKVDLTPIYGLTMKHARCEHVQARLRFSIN

[21] = HEp-2 cell cytotoxicity, dose response, cytotoxicity control for RSV inhibitor project, HTS (AID 2410); format: functional; settings: human respiratory syncytial virus

Luciferin 4-monooxygenase, sequence (P08659 whole entry): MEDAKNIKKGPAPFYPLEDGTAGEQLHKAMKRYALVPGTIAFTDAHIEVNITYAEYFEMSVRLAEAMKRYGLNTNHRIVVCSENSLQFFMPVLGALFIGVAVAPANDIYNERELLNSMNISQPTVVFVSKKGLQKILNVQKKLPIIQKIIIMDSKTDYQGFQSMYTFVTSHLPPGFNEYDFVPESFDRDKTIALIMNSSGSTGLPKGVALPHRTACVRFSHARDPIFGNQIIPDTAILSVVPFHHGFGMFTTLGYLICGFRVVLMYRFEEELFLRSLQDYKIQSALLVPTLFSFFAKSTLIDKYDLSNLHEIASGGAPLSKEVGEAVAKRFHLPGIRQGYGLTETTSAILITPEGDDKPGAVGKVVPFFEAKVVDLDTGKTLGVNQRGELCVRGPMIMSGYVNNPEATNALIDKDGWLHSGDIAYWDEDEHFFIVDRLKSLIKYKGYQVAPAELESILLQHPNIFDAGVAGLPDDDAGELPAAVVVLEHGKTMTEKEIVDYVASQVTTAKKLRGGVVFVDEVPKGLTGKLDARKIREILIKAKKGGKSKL

Compound: CCC(=O)N1c2ccc(S(=O)(=O)CCC(=O)N3CCN(c4ccccc4F)CC3)cc2CC1C (stereo unspecified)
- EC50 [1]: > 112 µM (not active)
- EC50 [2]: > 112 µM (not active)

Compound: CCCNC(=O)N1[C@@H](C#N)[C@H](c2ccccc2-c2ccccc2F)[C@@H]1CO
- AC50 [3]: 18.8 µM (active)

Compound: COc1ccc(OC(=O)CCc2c[nH]c3ccccc23)cc1
- IC50 [4]: 0.48 µM (active)

Compound: C=CCn1c(SCc2c(C)noc2C)nc2sc3c(c2c1=O)CCCCC3
- EC50 [5]: 15.1 µM (active)
- EC50 [6]: 14.8 µM (active)
- EC50 [7]: 14.7 µM (active)
- AC50 [8]: 0.856 µM (active)

Compound: NC(=O)CC(NC(=O)Cc1ccc(Br)cc1)c1ccc(N2CCN(c3ccccc3)CC2)c([N+](=O)[O-])c1 (stereo unspecified)
- AC50 [8]: 14.4 µM (active)

Compound: O=S(=O)(CCc1ccccc1)/N=C/c1cccs1
- EC50 [1]: > 112 µM (not active)
- EC50 [2]: > 112 µM (not active)

Compound: CCOc1ccc2nc(NC(=O)c3ccc(C)o3)sc2c1
- EC50 [1]: 0.562 µM (active)
- EC50 [2]: 5.87 µM (active)

Compound: COc1ccc(CN2CCCC(C(=O)c3ccc(SC)cc3)C2)cc1Cn1cccn1 (stereo unspecified)
- CC50 [9]: > 40 µM (active)

Compound: COC(=O)c1cc(NC2c3ccccc3C(=O)N2c2cccnc2)cc(C(=O)OC)c1 (stereo unspecified)
- EC50 [1]: > 112 µM (not active)
- EC50 [2]: > 112 µM (not active)

Compound: COc1ccc(-c2c(C#N)c(SCC(=O)c3cc4ccccc4oc3=O)nc(C)c2C(=O)Nc2ccccc2)cc1
- CC50 [9]: 5.32 µM (active)
- AC50 [8]: 0.738 µM (active)

Compound: COc1ccccc1-c1sc2ccccc2c1C#CC1(O)CCCCC1
- AC50 [8]: 5.11 µM (active)

Compound: Cc1sc2ncnc(N3CCC(C(=O)NCC(=O)Nc4ccc(F)c(F)c4)CC3)c2c1C
- EC50 [10]: 4.44 µM (active)
- CC50 [9]: 30.4 µM (active)
- EC50 [11]: 8.01 µM (active)

Compound: CN1CCN(C(=O)C[C@H]2C[C@@H]3c4cc(NC(=O)Nc5ccc(C(F)(F)F)cc5)ccc4O[C@@H]3[C@@H](CO)O2)CC1
- AC50 [3]: 5.16 µM (active)

Compound: Cc1n[nH]c(O)c1[C@@H](c1ccccc1[N+](=O)[O-])C(C#N)C#N
- EC50 [12]: 2.63 µM (active)

Compound: COc1ccc2c3c([nH]c2c1)[C@@H](CO)N(Cc1cccc(Cl)c1)CC31CCN(C(C)=O)CC1
- AC50 [3]: 3.22 µM (active)

Compound: Fc1ccc(-[n+]2nc(Nc3ccccc3)sc2-c2c3ccccc3cc3ccccc23)cc1
- EC50 [10]: 6.85 µM (active)
- AC50 [13]: > 380 µM (inactive)
- EC50 [14]: 3.22 µM (active)
- EC50 [12]: 10.6 µM (active)
- EC50 [11]: 9.23 µM (active)

Compound: Cc1ccc(C(=O)NCCn2cc(SCC(=O)Nc3nnc(C)s3)c3ccccc32)cc1
- EC50 [15]: > 120 µM (not active)
- EC50 [1]: > 112 µM (not active)
- EC50 [2]: > 112 µM (not active)
- EC50 [16]: 7.83 µM (active)
- EC50 [17]: 23.2 µM (active)

Compound: CC(C)(CO)NCC(O)COc1ccc2c(c1)CCC2 (stereo unspecified)
- EC50 [1]: > 112 µM (not active)
- EC50 [2]: > 112 µM (not active)

Compound: CN1C(C(=O)NCc2ccc(OC(F)(F)F)cc2)CC2Cn3c(nc4cc(Cl)c(Cl)cc43)C21 (stereo unspecified)
- CC50 [9]: 34.1 µM (active)

Compound: Cc1cc(C)n2nc(SCc3cc(=O)oc4cc(C)c(C)cc34)nc2n1
- EC50 [1]: > 112 µM (not active)
- EC50 [2]: > 112 µM (not active)

Compound: CCOc1cc(CNc2ccc(Br)cc2)cc(Br)c1OCC(=O)NC(C)(C)C
- EC50 [18]: 37.3 µM (active)
- EC50 [19]: 1.91 µM (active)
- AC50 [8]: 31.6 µM (active)

Compound: COC(=O)C1CSC(C(=O)OC)N1C(=O)Nc1ccccc1 (stereo unspecified)
- AC50 [20]: 25.1 µM (inconclusive)
- EC50 [1]: > 112 µM (not active)
- EC50 [2]: > 112 µM (not active)

Compound: CCOc1ccc(N2C=Nc3ccc(OCC)cc3C2)cc1
- CC50 [9]: > 40 µM (active)

Compound: Cc1onc(-c2ccccc2)c1C(=O)N=C(N)c1ccc(Cl)cc1
- EC50 [1]: > 112 µM (not active)
- EC50 [2]: 28.4 µM (active)

Compound: CC(=O)Nc1cc(OC(=O)c2ccco2)cc(OC(=O)c2ccco2)c1
- AC50 [13]: 1.77 µM (active)
- EC50 [12]: 1.03 µM (active)

Compound: Cc1nccn1-c1c([N+](=O)[O-])c(=O)n(C)c2ccccc12
- AC50 [13]: 29 µM (active)
- EC50 [12]: 12.2 µM (active)

Compound: S=C(Nc1ccccc1Cl)N1CCCC(c2ccccc2)=N1
- CC50 [21]: 25.1 µM (active)
- AC50 [8]: 4.35 µM (active)

Compound: Cc1cc(C)nc(NC(=O)c2ccc(COc3ccccc3Cl)cc2)c1
- AC50 [8]: 0.245 µM (active)
